This is an account of results in patent publication EP0200211A1, “Diagnostic radiopharmaceutical compounds” (THE RESEARCH FOUNDATION OF STATE UNIVERSITY OF NEW YORK, priority 1985, dated 1986).

A short description of the series: Autoradiogram comparison of rat brain distribution of radioactivity after intravenous injection. The class given is in vivo, Sprague-Dawley male rat. To be noted: autoradiograms at 2 and 15 minutes after injection, statement concerns the second (15 minute) autoradiogram. The source says:
• Figure 1 is an autoradiogram of rat brain distribution of radioactivity two (2) minutes after intravenous injection with a radioactive compound of the prior art. • Figure 2 is an autoradiogram of rat brain distribution of radioactivity fifteen (15) minutes after intravenous injection with a radioactive compound of the prior art. • Figure 3 is an autoradiogram of rat brain distribution of radioactivity two (2) minutes after intravenous injection with a radioactive compound of the invention. • Figure 4 is an autoradiogram of rat brain distribution of radioactivity fifteen (15) minutes after intravenous injection with a radioactive compound of the invention.
Autoradiograms were made of Sprague-Dawley male rat brains of animals that were intravenously injected with 6-[N,N-diethylamino]methyl-3,3,10,10-tetramethyl-1,2-dithia-5,8-diazacylcodecane technetium-99m complex of the invention and 10,10,13,13-tetramethyl-11,12-dithia-8,15-diazaspiro-[5.9)pentadecane-technetium-99m complex of the prior art. The autoradiograms were taken at 2 and 15 minute intervals after injection.

Consider `CCN(CC)CC1CNCC(C)(C)SSC(C)(C)CN1.[99Tc]` (centres unmarked) [6-[N,N-diethylamino]methyl-3,3,10,10-tetramethyl-1,2-dithia-5,8-diazacylcodecane technetium-99m complex], for which the “definition of the autoradiogram of rat brain” value is “sharp definition obtained and retained”.
`CC1(C)CNCC2(CCCCC2)NCC(C)(C)SS1.[99Tc]` [10,10,13,13-tetramethyl-11,12-dithia-8,15-diaza spiro [5.9] pentadecane-technetium-99m complex]: the “definition of the autoradiogram of rat brain” value is given as “lack of clear definition”.
